Legend:
[1] = In vivo mouse PK, oral administration (FIG. 1); set-up: species or system male C57Bl mice; details: orally administered, 60 μmol/kg in 1% Methocel A4C vehicle
Excerpt: Various embodiments of the invention will now be described by way of illustration only with reference to the following Examples and FIG. 1 which depicts plasma concentration against time for male C57Bl mice orally administered a compound of the invention or a compound of the prior art.

[2] = reference markers for the permeability assay; cited from earlier work
[3] = Metabolic stability in whole blood; assay type: in vitro ADME; details: worked out from whole blood CLint
Method: Compounds of the invention and the indicated comparative examples were tested for metabolic stability in a cytosol assay in which the compounds were incubated with commercially available human hepatic cytosol fractions and the disappearance of the compound monitored by HPLC or LC/MS. Pooled human liver cytosol fractions are less likely to represent outlier individuals than blood from a single individual and can be stored frozen, unlike whole blood. The cytosol assay thus provides a consistent assay testbed as a guide to the stability of a compound in the in vivo environment, such as when exposed to whole blood.
In short, test compounds (2 μM) are incubated in pooled human liver cytosol (Xenotech LLC Lenexa US, 1 mg/mL protein in 0.1 M phosphate buffer, pH 7.4) at 37° centigrade over a one hour period. The incubations are initiated by the addition of 1 mM NADPH co-factor. Timed sub-samples were taken at 0, 20, 40 and 60 minutes and “crash precipitated” by the addition of 3 volumes of ice-cold acetonitrile. The samples were centrifuged at reduced temperature and the supernatants were separated and analyzed by LC-MS-MS.
Alternatively, an analogous stability assay is carried out in human or monkey whole blood and/or commercially available liver microsomes, such as XEN 025.

SMILES	% absorption in man [2]	further results
C#C[C@@H]1CN(C(=O)[C@H](CC(C)C)NC(=O)c2ccc(-c3nc(N4CCN(C)CC4)sc3F)cc2)[C@@H]2C(=O)CO[C@H]12 [Example 2, N-[1-6-(ethynyl-3-oxo-hexahydro-furo[3,2-b]pyrrole-4-carbonyl)-3-methyl-butyl]-4-[5-fluoro-2-(4-methyl-piperazin-1-yl)thiazol-4-yl]-benzamide]	–	in vivo exposure (Cmax or AUC) compared with the prior art compound [1]: very much greater
N[C@@H](Cc1ccccc1)C(=O)O [L-Phenylalanine]	100%	–
OC[C@@H](O)[C@@H](O)[C@H](O)[C@H](O)CO [Mannitol]	16%	–
CN(Cc1cnc2nc(N)nc(N)c2n1)c1ccc(C(=O)N[C@@H](CCC(=O)O)C(=O)O)cc1 [Methotrexate]	20%	–
CC(C)C[C@H](NC(=O)c1ccc(-c2csc(N3CCN(C)CC3)n2)cc1)C(=O)N1C[C@@H](C)[C@H]2OCC(=O)[C@H]21 [comparative example]	–	estimated / calculated whole blood half life [3]: little over an hour

— patent US9200006B2, “Protease inhibitors” (MEDIVIR AB, priority 2008, dated 2015)
